Data from PMC7167818, “Addition of K22 Converts Spider Venom Peptide Pme2a from an Activator to an Inhibitor of NaV1.7” (Biomedicines, 2020).
Entries after “also recorded” stand apart in the source; their conditions may differ. Bridge positions count the residues as written; N and C are the ends. Peptide text beside a SMILES is read from it.

Tests used:
rTRPV1 = target: T1, rTRPV1 (Rattus norvegicus, UniProt O35433); assay: Calcium responses in TRPV1-HEK cells (FLIPR); assay type: cell-based
T1 construct: expressed in transfected cells
Experimental: HEK293 cells stably expressing rat transient receptor potential vanilloid 1 (TRPV1) were cultured in Dulbecco’s Modified Eagle Medium (DMEM) containing 10% FBS under selection with hygromycin B (100 μg/mL), generated as previously described [16]. Cells were grown in an incubator at 37 °C with 5% CO2 and passaged every 3–4 days (at 70%–80% confluency) using TrypLE Express (Thermo Fisher Scientific, Scoresby, VIC, Australia).
HEK cells stably expressing rTRPV1 were plated 48 h before the assay on 384-well black-walled imaging plates coated with poly D-lysine (ViewPlate-384, Perkin Elmer, Victoria, Australia) at a density of 10,000–15,000 cells/well and loaded with Calcium 4 no-wash dye (Molecular Devices) diluted in PSS and incubated for 30 min at 37 °C. […] Changes in fluorescence were assessed using the FLIPR^TETRA (excitation 470–495 nm, emission 515–575 nm) every 1 s for 300 s after the addition of compounds. Fluorescence responses were quantified by the maximum increase in fluorescence calculated using ScreenWorks 3.2.0.14.
Data were plotted and analysed using GraphPad Prism, version 8.2.0. For concentration–response curves, a four-parameter Hill equation with variable Hill coefficient was fitted to the data. Data are presented as the mean ± SEM.

hNaV1.8/β3 = assay: Whole-cell automated patch-clamp, peak current at hNaV1.8; assay type: cell-based, human; conditions: 10 μM; 5 min incubation; QPatch-16; holding −90 mV, 50 ms pulse to +10 mV every 20 s; 0.1% BSA; mean ± SEM
Experimental: (§1) Human Embryonic Kidney (HEK) 293 cells stably expressing human NaV1.7/β1 (SB Drug Discovery, Glasgow, UK) were cultured in Minimum Essential Medium (MEM) supplemented with 10% fetal bovine serum (FBS), 2 mM L-glutamine, and the selection antibiotics G-418 (0.6 mg/mL) and blasticidin (4 μg/mL), as recommended by the manufacturer. Chinese Hamster Ovary (CHO) cells stably expressing human NaV1.8/β3 in a tetracycline-inducible system (ChanTest, Cleveland, OH, USA) were cultured in MEM supplemented with 10% FBS and 2 mM L-glutamine. Expression of hNaV1.8 was induced by the addition of tetracycline (1 μg/mL) for 48–72 h prior to assays. HEK293 cells stably expressing rat transient receptor potential vanilloid 1 (TRPV1) were cultured in Dulbecco’s Modified Eagle Medium (DMEM) containing 10% FBS under selection with hygromycin B (100 μg/mL), generated as previously described. Cells were grown in an incubator at 37 °C with 5% CO2 and passaged every 3–4 days (at 70%–80% confluency) using TrypLE Express (Thermo Fisher Scientific, Scoresby, VIC, Australia).
(§2) Whole-cell patch-clamp experiments in NaV1.7-HEK cells and NaV1.8-CHO cells were performed on a QPatch-16 automated electrophysiology platform (Sophion Bioscience, Ballerup, Denmark) as previously described. […]
(§3) Data were plotted and analysed using GraphPad Prism, version 8.2.0. […]

hNaV1.7/β1 [1] = target: T2, hNaV1.7/β1 (Homo sapiens, UniProt Q15858); assay: Whole-cell automated patch-clamp, peak current at hNaV1.7; assay type: cell-based
Experimental: as §1
(§4) Whole-cell patch-clamp experiments in NaV1.7-HEK cells and NaV1.8-CHO cells were performed on a QPatch-16 automated electrophysiology platform (Sophion Bioscience, Ballerup, Denmark) as previously described. The extracellular solution contained in mM: NaCl 140, KCl 4, CaCl2 2, MgCl2 1, HEPES 10 and glucose 10; pH 7.4; osmolarity 305 mOsm. The intracellular solution contained in mM: CsF 140, EGTA/CsOH 1/5, HEPES 10 and NaCl 10; pH 7.3 with CsOH; osmolarity 320 mOsm. Concentration–response curves were acquired using a holding potential of −90 mV and a 50 ms pulse to −20 mV (for NaV1.7) or +10 mV (for NaV1.8) every 20 s (0.05 Hz). Peptides were diluted in extracellular solution with 0.1% BSA and each peptide concentration was incubated for 5 min. Peak current was normalized to buffer control. The time constant of fast inactivation (τ) was computed by fitting the current decay traces with a single exponential function using the QPatch Assay Software 5.6 (Sophion). […]
as §3

hNaV1.7/β1 [2] = target: T2, hNaV1.7/β1; assay: Voltage dependence of activation at hNaV1.7 (conductance-voltage curves, patch-clamp); assay type: cell-based; conditions: 1 μM, 5 min incubation; holding −90 mV, 500 ms steps −110 to +55 mV in 5 mV increments; Boltzmann fit; n = 3–6 cells per data point
Experimental: as §1, §2, §3

hNaV1.7/β1 [3] = target: T2, hNaV1.7/β1; assay: Time constant of fast inactivation (τ) at hNaV1.7 (patch-clamp); assay type: cell-based; conditions: holding −90 mV, 50 ms pulse to −20 mV, n = 4 cells per data point
Experimental: as §1, §4, §3

T2 sequence (Q07699 19-218): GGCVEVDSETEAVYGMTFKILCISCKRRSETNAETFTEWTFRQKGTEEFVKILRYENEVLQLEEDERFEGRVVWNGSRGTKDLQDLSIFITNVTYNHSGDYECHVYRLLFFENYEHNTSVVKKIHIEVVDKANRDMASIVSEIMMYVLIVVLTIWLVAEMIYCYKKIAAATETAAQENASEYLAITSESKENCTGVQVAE
T2 sequence (Q15858 whole entry): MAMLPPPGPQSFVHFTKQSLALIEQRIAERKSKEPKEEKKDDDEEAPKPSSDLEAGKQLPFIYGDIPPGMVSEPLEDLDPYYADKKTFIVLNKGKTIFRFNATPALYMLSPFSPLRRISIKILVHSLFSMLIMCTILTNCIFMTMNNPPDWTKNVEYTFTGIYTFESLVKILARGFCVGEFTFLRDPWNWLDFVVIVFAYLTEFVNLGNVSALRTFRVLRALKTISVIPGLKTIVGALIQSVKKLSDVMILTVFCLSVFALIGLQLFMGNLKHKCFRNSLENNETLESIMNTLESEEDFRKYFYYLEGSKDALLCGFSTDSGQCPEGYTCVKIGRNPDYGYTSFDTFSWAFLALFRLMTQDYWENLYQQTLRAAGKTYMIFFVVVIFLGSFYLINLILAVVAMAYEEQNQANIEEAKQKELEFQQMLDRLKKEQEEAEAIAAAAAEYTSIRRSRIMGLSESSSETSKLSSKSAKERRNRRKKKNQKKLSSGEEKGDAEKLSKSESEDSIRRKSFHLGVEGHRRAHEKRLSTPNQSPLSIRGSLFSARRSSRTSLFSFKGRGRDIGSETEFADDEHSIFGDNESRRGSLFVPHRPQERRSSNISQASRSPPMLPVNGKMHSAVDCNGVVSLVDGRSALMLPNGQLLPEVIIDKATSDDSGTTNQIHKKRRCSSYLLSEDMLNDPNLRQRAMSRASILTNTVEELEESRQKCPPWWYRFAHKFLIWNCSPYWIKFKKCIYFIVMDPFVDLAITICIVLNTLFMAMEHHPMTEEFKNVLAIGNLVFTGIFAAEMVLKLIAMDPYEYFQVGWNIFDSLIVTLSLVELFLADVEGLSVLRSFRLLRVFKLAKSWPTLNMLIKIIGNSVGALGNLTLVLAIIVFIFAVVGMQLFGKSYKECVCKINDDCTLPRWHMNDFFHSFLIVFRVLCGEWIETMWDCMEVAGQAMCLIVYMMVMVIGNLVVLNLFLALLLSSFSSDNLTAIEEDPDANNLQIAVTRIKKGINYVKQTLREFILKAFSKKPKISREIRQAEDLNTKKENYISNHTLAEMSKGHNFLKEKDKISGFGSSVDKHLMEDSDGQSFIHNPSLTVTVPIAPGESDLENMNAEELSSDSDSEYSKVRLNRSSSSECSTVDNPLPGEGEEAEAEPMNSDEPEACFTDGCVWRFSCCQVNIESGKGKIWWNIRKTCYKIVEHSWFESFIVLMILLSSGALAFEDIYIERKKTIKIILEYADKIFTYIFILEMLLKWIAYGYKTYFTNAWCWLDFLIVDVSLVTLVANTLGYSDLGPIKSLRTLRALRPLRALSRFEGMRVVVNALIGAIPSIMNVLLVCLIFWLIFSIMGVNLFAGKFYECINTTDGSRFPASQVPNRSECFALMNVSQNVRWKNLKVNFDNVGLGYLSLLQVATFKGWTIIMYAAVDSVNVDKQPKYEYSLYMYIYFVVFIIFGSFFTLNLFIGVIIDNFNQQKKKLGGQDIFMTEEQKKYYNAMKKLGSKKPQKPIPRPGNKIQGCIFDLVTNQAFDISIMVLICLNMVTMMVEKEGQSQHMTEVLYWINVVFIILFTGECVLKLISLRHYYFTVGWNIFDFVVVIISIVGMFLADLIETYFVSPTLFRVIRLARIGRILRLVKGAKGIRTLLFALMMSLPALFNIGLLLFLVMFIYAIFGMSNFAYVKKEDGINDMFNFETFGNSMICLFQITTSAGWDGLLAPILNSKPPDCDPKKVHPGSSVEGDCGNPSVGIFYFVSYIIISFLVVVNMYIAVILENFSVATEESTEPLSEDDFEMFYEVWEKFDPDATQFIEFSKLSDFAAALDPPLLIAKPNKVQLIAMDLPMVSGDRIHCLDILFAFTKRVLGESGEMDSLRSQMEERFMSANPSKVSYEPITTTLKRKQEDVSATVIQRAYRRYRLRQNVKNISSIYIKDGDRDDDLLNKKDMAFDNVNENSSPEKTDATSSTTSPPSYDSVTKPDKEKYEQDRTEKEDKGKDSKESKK
T1 sequence (O35433 whole entry): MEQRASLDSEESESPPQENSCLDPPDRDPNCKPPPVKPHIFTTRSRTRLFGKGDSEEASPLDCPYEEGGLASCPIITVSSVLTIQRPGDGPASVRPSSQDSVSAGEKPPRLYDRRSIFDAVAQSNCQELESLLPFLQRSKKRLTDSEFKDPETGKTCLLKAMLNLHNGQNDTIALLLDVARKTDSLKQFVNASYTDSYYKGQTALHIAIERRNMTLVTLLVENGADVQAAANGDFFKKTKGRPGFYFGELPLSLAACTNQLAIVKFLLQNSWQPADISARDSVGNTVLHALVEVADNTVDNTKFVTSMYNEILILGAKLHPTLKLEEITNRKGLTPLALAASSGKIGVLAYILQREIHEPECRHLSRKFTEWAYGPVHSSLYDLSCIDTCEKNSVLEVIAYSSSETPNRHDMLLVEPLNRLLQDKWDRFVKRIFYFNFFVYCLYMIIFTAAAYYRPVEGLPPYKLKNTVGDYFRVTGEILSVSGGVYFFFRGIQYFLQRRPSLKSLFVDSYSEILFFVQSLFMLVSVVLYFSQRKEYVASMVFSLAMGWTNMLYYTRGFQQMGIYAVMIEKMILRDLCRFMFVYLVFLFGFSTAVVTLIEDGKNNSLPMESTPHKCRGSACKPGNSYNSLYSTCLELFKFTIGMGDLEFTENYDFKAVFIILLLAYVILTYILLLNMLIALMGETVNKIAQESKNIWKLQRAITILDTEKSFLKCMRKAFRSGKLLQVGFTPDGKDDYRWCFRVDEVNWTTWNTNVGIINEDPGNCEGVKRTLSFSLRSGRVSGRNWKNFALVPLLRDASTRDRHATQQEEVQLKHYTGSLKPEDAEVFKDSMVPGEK

Compound	activity on TRPV1 (rTRPV1; rTRPV1-HEK293, Calcium 4 dye, up to 30 μM, n = 3–5 wells per data point)	inhibition of peak current at NaV1.8 (hNaV1.8/β3) [%]	IC50 (hNaV1.7/β1 [1]; 5 min incubation per concentration, QPatch-16, holding −90 mV, 50 ms pulse to −20 mV every 20 s, 0.1% BSA, mean ± SEM, n = 3–6 cells per data point, read-out: IC50 (inhibition of NaV1.7 peak current)) [µM]	shift of V1/2 of voltage dependence of activation (Δ) (hNaV1.7/β1 [2])	activity at TRPV1 (rTRPV1; rTRPV1-HEK293, data not shown, concentration not given)	EC50 (hNaV1.7/β1 [1]; abstract, QPatch-16, holding −90 mV, 50 ms pulse to −20 mV, read-out: EC50 as given in abstract: delays fast inactivation and inhibits NaV1.7 peak current) [µM]	pharmacology at NaV1.7 (activator / inhibitor) (hNaV1.7/β1 [1]; authors' summary in discussion)	EC50 (hNaV1.7/β1 [3]; 5 min incubation, τ from single exponential fit, read-out: estimated EC50 (delay of fast inactivation)) [µM]	effect on fast inactivation (hNaV1.7/β1 [3])
CSCC[C@@H]1NC(=O)[C@H](CCCCN)NC(=O)[C@@H]2CSSC[C@@H]3NC(=O)CNC(=O)CNC(=O)[C@H](CC(C)C)NC(=O)[C@H](Cc4ccccc4)NC(=O)[C@H](Cc4ccc(O)cc4)NC(=O)[C@H](CCCNC(=N)N)NC(=O)[C@@H](NC(=O)CNC(=O)CN)CSSC[C@H](NC(=O)[C@H](CSSC[C@@H](C(=O)N[C@@H](C)C(=O)N[C@@H](Cc4c[nH]c5ccccc45)C(=O)N[C@@H](CC(=O)O)C(=O)NCC(=O)N[C@H](C(=O)N[C@@H](Cc4ccccc4)C(N)=O)[C@@H](C)O)NC(=O)[C@H](Cc4ccc(O)cc4)NC(=O)[C@H](CC(N)=O)NC(=O)[C@H](CC(C)C)NC(=O)CNC1=O)NC(=O)[C@H](CC(=O)O)NC(=O)[C@H](CO)NC(=O)[C@H](Cc1c[nH]cn1)NC(=O)[C@H](CCC(=O)O)NC(=O)[C@H](CO)NC3=O)C(=O)N[C@@H](CCC(=O)O)C(=O)N[C@@H](Cc1c[nH]cn1)C(=O)N[C@@H](CC(C)C)C(=O)N[C@@H](CCCNC(=N)N)C(=O)N2 [Pme1a] (H-GGCRYFLGGCSEHSDCCEHLRCKMGLNYCAWDGTF-NH2; disulfide 3-17, 10-22, 16-29 (inferred); N-terminus assumed)	no activity	21 ± 2	0.334 ± 0.114	+11.6 mV					
CSCC[C@@H]1NC(=O)[C@H](Cc2ccccc2)NC(=O)[C@H](CCCCN)NC(=O)[C@H]([C@@H](C)O)NC(=O)[C@@H](NC(=O)CN)CSSC[C@@H]2NC(=O)[C@@H]3CSSC[C@@H](C(=O)NCC(=O)N[C@@H](Cc4c[nH]c5ccccc45)C(=O)N[C@@H](CC(=O)O)C(=O)NCC(=O)N[C@H](C(=O)N[C@@H](Cc4ccccc4)C(N)=O)[C@@H](C)O)NC(=O)[C@H](Cc4c[nH]c5ccccc45)NC(=O)[C@H](CCCCN)NC(=O)[C@H](Cc4ccc(O)cc4)NC(=O)[C@H](CCCCN)NC(=O)[C@H](Cc4ccc(O)cc4)NC(=O)[C@H](CSSC[C@H](NC(=O)[C@H](CO)NC(=O)CNC1=O)C(=O)N[C@@H](CCCCN)C(=O)N[C@@H]([C@@H](C)O)C(=O)N[C@@H](CC(=O)O)C(=O)N[C@@H](C)C(=O)N[C@@H](CC(=O)O)C(=O)N3)NC(=O)[C@H](CCC(=O)O)NC(=O)[C@H](CC(C)C)NC(=O)[C@H](Cc1c[nH]cn1)NC(=O)[C@H](CCC(=O)O)NC2=O [Pme2a] (H-GCTKFMGSCKTDADCCEHLECYKYKWCGWDGTF-NH2; disulfide 2-16, 9-21, 15-27 (inferred); N-terminus assumed)		22 ± 4			no activity	> 10	NaV1.7 channel activator	> 10	concentration-dependently delaying-fast inactivation; also recorded: concentration-dependently increases the time constant of fast inactivation (τ)
CSCC[C@@H]1NC(=O)[C@H](Cc2ccccc2)NC(=O)[C@H](CCCCN)NC(=O)[C@H]([C@@H](C)O)NC(=O)[C@@H](NC(=O)CN)CSSC[C@@H]2NC(=O)[C@@H]3CSSC[C@@H](C(=O)NCC(=O)N[C@@H](Cc4c[nH]c5ccccc45)C(=O)N[C@@H](CC(=O)O)C(=O)NCC(=O)N[C@H](C(=O)N[C@@H](Cc4ccccc4)C(N)=O)[C@@H](C)O)NC(=O)[C@H](Cc4c[nH]c5ccccc45)NC(=O)[C@H](CCCCN)NC(=O)[C@H](Cc4ccc(O)cc4)NC(=O)[C@H](CCCCN)NC(=O)[C@H](Cc4ccc(O)cc4)NC(=O)[C@H](CCCCN)NC(=O)[C@H](CSSC[C@H](NC(=O)[C@H](CO)NC(=O)CNC1=O)C(=O)N[C@@H](CCCCN)C(=O)N[C@@H]([C@@H](C)O)C(=O)N[C@@H](CC(=O)O)C(=O)N[C@@H](C)C(=O)N[C@@H](CC(=O)O)C(=O)N3)NC(=O)[C@H](CCC(=O)O)NC(=O)[C@H](CC(C)C)NC(=O)[C@H](Cc1c[nH]cn1)NC(=O)[C@H](CCC(=O)O)NC2=O [[+22K]Pme2a] (H-GCTKFMGSCKTDADCCEHLECKYKYKWCGWDGTF-NH2; disulfide 2-16, 9-21, 15-28 (inferred); N-terminus assumed)									removed the effect of the native peptide on fast inactivation; also recorded: without the delay in fast activation seen with the native peptide
